Patent US20260125400A1, “TYK2 DEGRADERS AND USES THEREOF” (Kymera Therapeutics, Inc., priority 2023, published 2026)
Where two headings read alike, the source gives them in different places.

Target: T1, TYK2 (Homo sapiens, UniProt P29597)
T1 construct: Degradation of TYK2 in cells was quantitatively measured using Meso Scale Discovery (MSD) technology; endogenous in cells; host or cells: OCI-LY10
Test: TYK2 MSD degradation in OCI-LY10 cells
Assay type: cell-based
Conditions: 4 to 24 hours incubation; for DC50: read-out: TYK2 MSD OCI-LY10 Rel-DC50
Protocol: Example 7. TYK2 MSD Degradation
Degradation of TYK2 in cells was quantitatively measured using Meso Scale Discovery (MSD) technology. OCI-LY10 cells were seeded in 96-well plates with a density of 0.4 million cells per well in 100 μl fresh media. Compounds were then added to the assay plates with a final top concentration of 1 to 10 μM in a 1:3 dilution series with total of 9 doses. The assay plates were then incubated for 4 to 24 hours at 37° C. under […]. The assay plates were then centrifuged for 5 minutes, and the cell pellets were treated with 100 μl/well RIPA lysis buffer (Boston Bioproducts, BP-115D) with protease and phosphatase inhibitors (Roche, 05892791001 and 04906837001). To prepare MSD assay plates (MSD, L15XA), the plates were coated with the capture antibody (Santa Cruz Biotechnology, SC-5271) in PBS, at 40 μl/well. The plates were then incubated overnight at 4° C., washed 3 times with 150 μl/well TBST buffer (Cell Signaling Technology, 9997S) and blocked with 150 μl/well blocking buffer (MSD, R93BA-4). Cell lysates were then added to MSD assay plates and the plates were incubated at room temperature for 1 hour. The plates were then washed 3 times with 150 μl/well TBST buffer and 25 μl/well primary detection antibody (Cell Signaling Technology, #9312). The assay plates were then incubated at room temperature for 1 hour, washed 3 times with 150 μl/well TBST buffer, and 25 μl/well secondary detection antibody, SULFO-TAG anti-rabbit antibody (MSD, R32AB-1) were added. The assay plates were then incubated at room temperature for 1 hour, washed 3 times with 150 μl/well TB ST buffer, and 150 μl/well MSD reading buffer (MSD, R92TC-2) were added. The plates were then analyzed by an MSD reader. The data was analyzed by GraphPad Prism and the dose dependent TYK2 degradation was fit using the four-parameter inhibitor vs. response nonlinear regression.
The letter codes for TYK2 DC50 include: A (<1 nM); B (i to <10 nM); C (10 to 100 nM); D (>100 nM); and E (not tested). The letter codes for TYK2 Dmax % include: A (>90%); B (90 to >75%); C (75 to 50%); D (<50%); and E (not tested).

[1] = TYK2 degradation in OCI-LY10 cells

T1 sequence (P29597 whole entry): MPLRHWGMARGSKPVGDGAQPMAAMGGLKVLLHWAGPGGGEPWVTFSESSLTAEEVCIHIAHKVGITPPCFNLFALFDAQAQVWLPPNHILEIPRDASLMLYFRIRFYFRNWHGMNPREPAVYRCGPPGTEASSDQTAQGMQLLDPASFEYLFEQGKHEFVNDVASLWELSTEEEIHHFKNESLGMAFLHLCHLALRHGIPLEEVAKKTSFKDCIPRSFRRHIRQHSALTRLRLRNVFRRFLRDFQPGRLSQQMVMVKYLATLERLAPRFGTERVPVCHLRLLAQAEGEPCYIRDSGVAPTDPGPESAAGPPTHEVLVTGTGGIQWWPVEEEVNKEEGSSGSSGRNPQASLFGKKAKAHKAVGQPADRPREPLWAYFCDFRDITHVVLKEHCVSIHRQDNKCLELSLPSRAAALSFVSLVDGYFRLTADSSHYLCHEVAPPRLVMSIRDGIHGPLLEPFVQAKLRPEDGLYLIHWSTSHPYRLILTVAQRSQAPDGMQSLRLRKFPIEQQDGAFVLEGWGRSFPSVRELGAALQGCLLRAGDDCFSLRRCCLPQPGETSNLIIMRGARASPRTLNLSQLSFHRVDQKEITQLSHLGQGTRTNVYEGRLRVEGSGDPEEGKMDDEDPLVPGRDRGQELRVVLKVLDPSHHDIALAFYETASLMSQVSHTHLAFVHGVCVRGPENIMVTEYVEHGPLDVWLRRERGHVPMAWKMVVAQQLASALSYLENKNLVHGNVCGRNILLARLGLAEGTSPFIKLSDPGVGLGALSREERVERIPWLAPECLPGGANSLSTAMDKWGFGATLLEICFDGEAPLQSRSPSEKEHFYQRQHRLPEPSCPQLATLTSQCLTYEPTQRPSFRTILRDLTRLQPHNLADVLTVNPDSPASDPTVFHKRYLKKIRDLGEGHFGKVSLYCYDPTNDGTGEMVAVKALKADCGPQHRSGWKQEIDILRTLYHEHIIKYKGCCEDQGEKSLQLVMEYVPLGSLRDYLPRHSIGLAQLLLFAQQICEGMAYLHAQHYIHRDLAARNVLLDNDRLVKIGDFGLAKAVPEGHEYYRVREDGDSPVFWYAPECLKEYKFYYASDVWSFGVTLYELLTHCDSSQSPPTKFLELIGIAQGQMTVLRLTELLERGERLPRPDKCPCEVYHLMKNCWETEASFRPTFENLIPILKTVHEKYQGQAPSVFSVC

| SMILES | TYK2 MSD OCI-LY10 Dmax % [1] | DC50 [1] [nM] | TYK2 MSD OCI-LY10 Dmax % (OCI-LY10 cells) | DC50 (OCI-LY10 cells) [nM] |
| --- | --- | --- | --- | --- |
| CNc1cc(N2CCc3c(-c4ccc(CN5CC(F)(F)C6(CCN(C(=O)c7ccc(Cl)c(N8CCC(=O)NC8=O)c7)CC6)C5)cn4)cccc32)nn2c(C(=O)N[C@@H]3C[C@@H]3F)cnc12 [I-849] | B (B (90 to >75%)) | < 10 | – | – |
| CNc1cc(N2CCc3c(-c4cc(CN5CCC6(CC5)CN(c5ccc7c(c5)n(C)c(=O)n7C5CCC(=O)NC5=O)C6)ccn4)cccc32)nn2c(C(=O)NC3CC3)cnc12 (centres unmarked) [I-21] | D (D (<50%)) | < 10 | – | – |
| CNc1cc(N2CCc3c(C#CCN4CCN(C5CCN(C(=O)c6ccc(Cl)c(N7CCC(=O)NC7=O)c6)CC5(F)F)CC4)cccc32)nn2c(C(=O)NC3CC3F)cnc12 (centres unmarked) [I-846] | A (A (>90%)) | < 1 | – | – |
| CNc1cc(N2CCc3c(-c4ccc(CN5CC6(CCN(C(=O)c7cccc(N8CCC(=O)NC8=O)c7C)CC6)C5)cn4)cccc32)nn2c(C(=O)NC3CC3F)cnc12 (centres unmarked) [I-309] | D (D (<50%)) | > 100 | – | – |
| CNc1cc(N2CCc3c(-c4ccc(CN5CCC(N6CCC7(CC6)CN(c6ccc8c(c6)n(C)c(=O)n8C6CCC(=O)NC6=O)C7)C(F)(F)C5)cn4)cccc32)nn2c(C(=O)NC3CC3)cnc12 (centres unmarked) [I-47] | B (B (90 to >75%)) | < 10 | – | – |
| CNc1cc(N2CCc3c(CN4CCC(CN5CC6(CCN(C(=O)c7ccc(Cl)c(N8CCC(=O)NC8=O)c7)CC6)C5)CC4)cccc32)nn2c(C(=O)N[C@@H]3C[C@@H]3F)cnc12 [I-894] | B (B (90 to >75%)) | < 10 | – | – |
| CNc1cc(N2CCc3c(-c4ccc(CC5CCC6(CC5)CCN(C(=O)c5cc(C)c(Cl)c(N7CCC(=O)NC7=O)c5)CC6)cn4)cccc32)nn2c(C(=O)N[C@@H]3CC[C@H]3OC)cnc12 [I-1107] | A (A (>90%)) | < 10 | – | – |
| CNc1cc(N2CCc3c(-c4ccc(CN5CCC6(CCN(C(=O)c7ccc(Cl)c(N8CCC(=O)NC8=O)c7)CC6)C(F)(F)C5)cn4)cccc32)nn2c(C(=O)N[C@@H]3C[C@@H]3F)cnc12 [I-901] | A (A (>90%)) | < 1 | – | – |
| COC1(c2cc(-c3ccc(CN4CC5(CCN(C(=O)c6ccc(Cl)c(N7CCC(=O)NC7=O)c6)CC5)C4)cn3)cc(-c3cn(C)c4cnc(NC(C)=O)cc34)n2)CCOC1 (centres unmarked) [I-850] | B (B (90 to >75%)) | < 10 | – | – |
| COC1(c2cc(C)cc(-c3cn(CCC4CCN(C5CCN(c6cc(F)c(C7CCC(=O)NC7=O)c(F)c6)CC5)CC4)c4cnc(NC(C)=O)cc34)n2)CCOC1 (centres unmarked) [I-1130] | B (B (90 to >75%)) | < 10 | – | – |
| CNc1cc(N2CCc3c(CN4CCC(N5CCC6(CCN(C(=O)c7cc(N8CCC(=O)NC8=O)c(Cl)cc7F)CC6)CC5)C(F)(F)C4)cccc32)nn2c(C(=O)N[C@@H]3C[C@@H]3F)cnc12 (some centres unmarked) [I-841] | A (A (>90%)) | < 1 | – | – |
| CNc1cc(N2CC3(CCN(Cc4cccc5c4n(C)c(=O)n5C4CCC(=O)NC4=O)CC3)c3ccccc32)nn2c(C(=O)NC3CC3)cnc12 (centres unmarked) [I-52] | D (D (<50%)) | > 100 | – | – |
| CNc1cc(N2CCc3c(CN4CC[C@@H](N5CCC6(CCN(C(=O)c7cc(N8CCC(=O)NC8=O)c(Cl)cn7)CC6)CC5)C(F)(F)C4)cc(F)cc32)nn2c(C(=O)N[C@@H]3CC[C@H]3OC)cnc12 [I-1147] | A (A (>90%)) | < 1 | – | – |
| CNc1cc(N2CCc3c(-c4ccc(CN5CCC6(CC5)CCN(Cc5ccc(Cl)c(N7CCC(=O)NC7=O)c5)CC6)cn4)cccc32)nn2c(C(=O)N[C@@H]3C[C@@H]3F)cnc12 [I-95] | D (D (<50%)) | > 100 | – | – |
| CNc1cc(N2CCc3c(-c4ncc(CN5CC6(CCN(C(=O)c7ccc(C)c(N8CCC(=O)NC8=O)c7)CC6(F)F)C5)cc4F)cccc32)nn2c(C(=O)N[C@@H]3CC[C@H]3OC)cnc12 [I-1004] | A (A (>90%)) | < 1 | – | – |
| CNc1cc(N2CCc3c(-c4ccc(CN5CCC(N6CCC(C#Cc7ccc8c(c7)n(C)c(=O)n8C7CCC(=O)NC7=O)CC6)C(F)(F)C5)cn4)cccc32)nn2c(C(=O)N[C@H]3C[C@H]3F)cnc12 (some centres unmarked) [I-86] | C (C (75 to 50%)) | < 10 | – | – |
| CNc1cc(N2CCc3c(CN4CCC(N5CCN(C(=O)c6ccc(Cl)c(N7CCC(=O)NC7=O)c6)CC5)C(F)(F)C4)cccc32)nn2c(C(=O)N[C@@H]3C[C@@H]3F)cnc12 (some centres unmarked) [I-890] | B (B (90 to >75%)) | < 10 | – | – |
| CNc1cc(N2CCc3c(CN4CCC(N5CCC6(CCN(C(=O)c7cc(Cl)c(C)c(N8CCC(=O)NC8=O)c7)CC6)CC5)C(F)(F)C4)cccc32)nn2c(C(=O)N[C@@H]3C[C@@H]3F)cnc12 (some centres unmarked) [I-711] | – | – | B (B (90 to >75%)) | < 10 |
| CNc1cc(N2CCc3c(-c4ccc(N5CCN(CC6CCN(c7ccc(Cl)c(C8CCC(=O)NC8=O)c7)CC6)CC5)cn4)cccc32)nn2c(C(=O)NC3CC3F)cnc12 (mixture of isomers) [I-442] | – | – | C (C (75 to 50%)) | < 10 |
| CNc1cc(N2CCc3c(-c4ccc(CN5CCC(N6CC7(CCN(c8cccc9c8n(C)c(=O)n9C8CCC(=O)NC8=O)CC7)C6)C(F)(F)C5)cn4)cccc32)nn2c(C(=O)N[C@@H]3C[C@@H]3F)cnc12 (some centres unmarked) [I-279] | B (B (90 to >75%)) | < 10 | – | – |
| CNc1cc(N2CCc3c(-c4ncc(CN5CC6(CCN(C(=O)c7cc(N8CCC(=O)NC8=O)c(F)cn7)CC6(F)F)C5)cc4F)cc(F)cc32)nn2c(C(=O)N[C@@H]3CC[C@H]3OC)cnc12 [I-1155] | B (B (90 to >75%)) | < 1 | – | – |
| CNc1cc(N2CCc3c(-c4ccc(CN5CC6(CCN(Cc7c(C)ccc(N8CCC(=O)NC8=O)c7C)CC6(F)F)C5)cn4)cccc32)nn2c(C(=O)N[C@@H]3C[C@@H]3F)cnc12 [I-458] | – | – | D (D (<50%)) | < 10 |
| CNc1cc(N2CCc3c(CN4CCC(CN5CCN(C(=O)c6ccc(Cl)c(N7CCC(=O)NC7=O)c6)CC5)CC4)cccc32)nn2c(C(=O)N[C@@H]3C[C@@H]3F)cnc12 [I-891] | D (D (<50%)) | > 100 | – | – |
| CNc1cc(N2CCc3c(CN4CCC(N5CCC6(CCN(C(=O)c7cc(F)c(Cl)c(N8CCC(=O)NC8=O)c7)CC6)CC5)C(F)(F)C4)cccc32)nn2c(C(=O)NC3CCC3OC)cnc12 (centres unmarked) [I-1078] | A (A (>90%)) | < 1 | – | – |
| CNc1cc(N2CCc3c(-c4ccc(N5CCC6(CCN(C(=O)c7ccc(Cl)c(N8CCC(=O)NC8=O)c7)CC6)CC5)cn4)cccc32)nn2c(C(=O)N[C@@H]3C[C@@H]3F)cnc12 [I-249] | D (D (<50%)) | > 100 | – | – |
| CNc1cc(N2CCc3c(CN4CCC(N5CCC6(CCN(Cc7ccc(Cl)c(N8CCC(=O)NC8=O)c7)CC6)CC5)C(F)(F)C4)cccc32)nn2c(C(=O)N[C@@H]3C[C@@H]3F)cnc12 (some centres unmarked) [I-844] | B (B (90 to >75%)) | < 10 | – | – |
| CNc1cc(N2CCc3c(-c4ncc(CN5CC6(CCN(C(=O)c7cc(C)c(Cl)c(N8CCC(=O)NC8=O)c7)CC6(F)F)C5)cc4F)cccc32)nn2c(C(=O)NC3CCCC3)cnc12 [I-990] | B (B (90 to >75%)) | < 10 | – | – |
| CNc1cc(N2CCc3c(-c4ccc(CN5CCN(CCC6CCN(c7ccc(Cl)c(C8CCC(=O)NC8=O)c7)CC6)CC5)cn4)cccc32)nn2c(C(=O)NC3CC3F)cnc12 (mixture of isomers) [I-438] | – | – | C (C (75 to 50%)) | < 10 |
